# Source: doi:10.1101/2025.06.12.659322v2 (biorxiv, 2025)
# pIC50: −log10 of the molar value.
# Molecular target: Rv0183 (mtbMGL) (Mycobacterium tuberculosis, UniProt O07427)
# Experiment: biochemical
# Sequence of Rv0183 (mtbMGL) (O07427 whole entry): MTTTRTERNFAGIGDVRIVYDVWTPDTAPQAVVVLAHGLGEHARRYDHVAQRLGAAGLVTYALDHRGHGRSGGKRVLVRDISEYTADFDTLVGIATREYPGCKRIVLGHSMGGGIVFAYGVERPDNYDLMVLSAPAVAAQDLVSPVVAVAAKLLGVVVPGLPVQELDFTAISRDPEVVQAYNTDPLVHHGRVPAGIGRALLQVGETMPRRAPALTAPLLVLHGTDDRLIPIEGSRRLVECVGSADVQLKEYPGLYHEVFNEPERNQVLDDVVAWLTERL
row,SMILES,pIC50
1,"O=C(c1ccc(-c2cnc(-c3cccc(OC(F)(F)F)c3)o2)cc1)N1CC[C@@H](O)C1 [ELF8, (R)-(3-hydroxypyrrolidin-1-yl)(4-(2-(3-(trifluoromethoxy)phenyl)oxazol-5-yl)phenyl)methanone]",5.37
2,"COc1ccc(-n2nc(C(=O)N3CC[C@@H](O)C3)cc2-c2ccccc2Cl)cc1 [ELF1, (R)-(5-(2-chlorophenyl)-1-(4-methoxyphenyl)-1H-pyrazol-3-yl)(3-hydroxypyrrolidin-1-yl)methanone]",5.02
3,"COc1ccc(Nc2cc(-n3cc(C(=O)N4CC[C@@H](O)C4)cn3)ncn2)cc1 [ELF5, (R)-(3-hydroxypyrrolidin-1-yl)(1-(6-((4-methoxyphenyl)amino)pyrimidin-4-yl)-1H-pyrazol-4-yl)methanone]",5.07
